Experiments:
Type in all cases: cell-based
[1] = test system: MV-4-11 cells; assay: Antiproliferative activity, CCK-8 assay; conditions: Homo sapiens, MV4-11; 144 hours incubation, CCK-8, absorbance at 450 nm
Description: (§1) The cell models used in this example were human hematologic tumor cells, including NCI-H929, RPMI-8226, MV-4-11, U937 and WSU-DLCL-2. Some of the compounds of the present invention were selected to determine their inhibitory activity against the proliferation of NCI-H929, RPMI-8226, MV-4-11, U937, and WSU-DLCL-2 cells.
(§2) • ① The selected compounds were dissolved in DMSO to prepare 10 mM stock solutions. Compounds used within three months should be stored at room temperature in a desiccator; others could be stored at -20°C for long-term storage. • ② The above stock solutions and the positive reference compound pomalidomide were diluted with DMSO. Their initial concentrations were 10 µM. In the experiments of NCI-H929 and RPMI-8226 cells, 3-fold serial dilution with 11 concentration points was performed, with the lowest concentration of 0.00047 µM. The resulting solutions were shaken on a shaker for 5 minutes.
(§3) • ① The NCI-H929, RPMI-8226, MV-4-11, U937, and WSU-DLCL-2 cells in logarithmic growth phase were inoculated in a 96-well plate, 20,000 to 30,000 cells per well, and the plate was pre-cultured for 24 hours in an incubator (at 37°C and 5% CO2). • ② The culture medium in the plate was replaced, and the compounds and the positive control with corresponding concentrations were added to the plated at a volume of 50 µl. • ③ The plate was incubated for 144 hours in an incubator, then 15 µl of CCK-8 solution was added to each well, and incubated in the incubator for another 1-4 hours. • ④ The absorbance at 450 nm was measured using a microplate reader.
(§4) • ① Calculating % Inhibition: [formula] • ② Calculating IC50 value of compound and plotting dose-response curve: The IC50 value was calculated by fitting the % Inhibition and the logarithm of compound concentration to a nonlinear regression (dose response-variable slope) by using GraphPad 6.0. • Y = Bottom + (Top - Bottom) / (1 + 10^((LogIC50 - X) * HillSlope)) • X: log of inhibitor concentration; Y: % Inhibition.
(§5) After calculating % Inhibition, a dose-response curve was plotted with the logarithm of the test compound concentration as the x-axis and the average cell viability as the y-axis, and the IC50 value was obtained by fitting.

[2] = test system: WSU-DLCL-2 cells; assay: Antiproliferative activity, CCK-8 assay; conditions: Homo sapiens, WSUDLCL2; 144 hours incubation, CCK-8, absorbance at 450 nm
Description: as §1, §2, §3, §4, §5

[3] = test system: NCI-H929 cells; assay: Antiproliferative activity, CCK-8 assay; conditions: Homo sapiens, 144 hours incubation, CCK-8, absorbance at 450 nm, read-out: IC50 (µM) H-929
Description: as §1, §2, §3, §4, §5

[4] = test system: RPMI-8226 cells; assay: Antiproliferative activity, CCK-8 assay; conditions: Homo sapiens, 144 hours incubation, CCK-8, absorbance at 450 nm
Description: as §1, §2, §3, §4, §5

[5] = test system: U937 cells; assay: Antiproliferative activity, CCK-8 assay; conditions: Homo sapiens, U-937; 144 hours incubation, CCK-8, absorbance at 450 nm
Description: as §1, §2, §3, §4, §5

[6] = test system: NCI-H929-Lenalidomide-R cells; assay: Antiproliferative activity against resistant cells, CCK-8 assay; conditions: Homo sapiens, 144 hours incubation
Description: (§6) In this example, lenalidomide-resistant human multiple myeloma cells, including NCI-H929 (NCI-H929-Lenalidomide-R) and RPMI-8226 (RPMI-8226-Lenalidomide-R), and pomalidomide-resistant human multiple myeloma cells, including NCI-H929 (NCI-H929-pomalidomide-R) and RPMI-8226 (RPMI-8226-pomalidomide-R), were selected as cell models to determine the inhibitory activity of compound I-8 of the present invention against the proliferation of the resistant cells.
(§7) • ① I-8 was dissolved in DMSO to prepare a 10 mM stock solution. Compounds used within three months should be stored at room temperature in a desiccator; others could be stored at -20°C for long-term storage. • ② The I-8 stock solution and the reference compounds lenalidomide and pomalidomide were all diluted with DMSO. Their initial concentrations were 10 µM. In the experiments of lenalidomide-resistant human multiple myeloma cells (NCI-H929 (NCI-H929-Lenalidomide-R) and RPMI-8226 (RPMI-8226-Lenalidomide-R) and pomalidomide-resistant human multiple myeloma cells (NCI-H929 (NCI-H929-pomalidomide-R) and RPMI-8226 (RPMI-8226-pomalidomide-R), 3-fold serial dilution with 11 concentration points was performed, with the lowest concentration of […]. The resulting solutions were shaken on a shaker for 5 minutes.
(§8) • ① The NCI-H929-Lenalidomide-R, RPMI-8226-Lenalidomide-R, NCI-H929-pomalidomide-R, and RPMI-8226-pomalidomide-R cells in logarithmic growth phase were inoculated in a 96-well plate, 20,000 to 30,000 cells per well, and the plate was pre-cultured for 24 hours in an incubator (at 37°C and 5% CO2). • ® The culture medium in the plate was replaced, and the compounds and the positive controls with corresponding concentrations were added to the plated at a volume of 50 µL. • ③ The plate was incubated for 144 hours in an incubator, then 15 µL of CCK-8 solution was added to each well, and the plate was incubated in the incubator for another 1-4 hours. • ④ The absorbance at 450 nm was measured using a microplate reader.
as §4, with “6.0.” for “6.0. •”, “(Top−Bottom)/(1+10^(∧)((LogIC50−X)*HillSlope)) [formula]” for “(Top - Bottom) / (1 + 10^((LogIC50 - X) * HillSlope)) •”
as §5

[7] = test system: RPMI-8226-pomalidomide-R cells; assay: as above; conditions: Homo sapiens, 144 hours incubation
Description: as §6, §7, §8
as §4, with “6.0.” for “6.0. •”, “(Top−Bottom)/(1+10^(∧)((LogIC50−X)*HillSlope)) [formula]” for “(Top - Bottom) / (1 + 10^((LogIC50 - X) * HillSlope)) •”
as §5

[8] = test system: NCI-H929-pomalidomide-R cells; assay: as above; conditions: Homo sapiens, 144 hours incubation
Description: as §6, §7, §8
as §4, with “6.0.” for “6.0. •”, “(Top−Bottom)/(1+10^(∧)((LogIC50−X)*HillSlope)) [formula]” for “(Top - Bottom) / (1 + 10^((LogIC50 - X) * HillSlope)) •”
as §5

[9] = test system: RPMI-8226-Lenalidomide-R cells; assay: as above; conditions: Homo sapiens, 144 hours incubation
Description: as §6, §7, §8
as §4, with “6.0.” for “6.0. •”, “(Top−Bottom)/(1+10^(∧)((LogIC50−X)*HillSlope)) [formula]” for “(Top - Bottom) / (1 + 10^((LogIC50 - X) * HillSlope)) •”
as §5

SMILES	IC50 [1] [µM]	IC50 [3] [µM]	IC50 [4] [µM]	IC50 [5] [µM]	IC50 [6] [µM]	IC50 [7] [µM]	IC50 [8] [µM]	IC50 [9] [µM]	IC50 [2] [µM]
CN1Cc2c(cccc2[N+](=O)[O-])C(=O)N1C1CCC(=O)NC1=O (centres unmarked) [I-9, 3-(3-methyl-5-nitro-1-oxo-3,4-dihydrophthalazin-2(1H)-yl)piperidin-2,6-dione]	0.39	> 10	0.457	> 10					0.23
CN1Cc2cc(N)ccc2C(=O)N1C1CCC(=O)NC1=O (centres unmarked) [I-10, 3-(6-amino-3-methyl-1-oxo-3,4-dihydrophthalazin-2(1H)-yl)piperidin-2,6-dione]	0.215	5.85	0.38	> 10					0.7
CN1Cc2cc([N+](=O)[O-])ccc2C(=O)N1C1CCC(=O)NC1=O (centres unmarked) [I-11, 3-(3-methyl-6-nitro-1-oxo-3,4-dihydrophthalazin-2(1H)-yl)piperidin-2,6-dione]	0.294	2.54	2.97	4.13					2.65
CN1Cc2c(N)cc(F)cc2C(=O)N1C1CCC(=O)NC1=O (centres unmarked) [I-12, 3-(5-amino-7-fluoro-3-methyl-1-oxo-3,4-dihydrophthalazin-2(1H)-yl)piperidin-2,6-dione]	0.874	> 10	0.499	2.3					3.69

More lines, main results first:

IC50 [1] [µM]	IC50 [3] [µM]	IC50 [4] [µM]	IC50 [5] [µM]	IC50 [6] [µM]	IC50 [7] [µM]	IC50 [8] [µM]	IC50 [9] [µM]	SMILES	IC50 [2] [µM]
> 10	0.85	0.204	1.11					CN1Cc2c(cc(F)cc2[N+](=O)[O-])C(=O)N1C1CCC(=O)NC1=O (centres unmarked) [I-13, 3-(7-fluoro-3-methyl-5-nitro-1-oxo-3,4-dihydrophthalazin-2(1H)-yl)piperidin-2,6-dione]	0.88
				> 100	> 100	> 100	> 100	Nc1cccc2c1CN(C1CCC(=O)NC1=O)C2=O (centres unmarked) [Lenalidomide]	

Source: patent EP4722203A1, “3,4-DIHYDROPHTHALAZIN-1(2H)-ONE DERIVATIVE, AND PREPARATION METHOD THEREFOR AND USE THEREOF” (Academy of Military Medical Sciences, priority 2023, dated 2024)
